This passage reports IC50 results from patent US20260365628A1, “SUBSTITUTED 3,4-DIHYDROQUINOLINONE INHIBITORS OF TSHR” (Septerna, Inc., priority 2022, published 2026).

The target in this test is T1, hTSHR (Homo sapiens, UniProt P16473).
T1 construct: expressed in transfected cells
Briefly: hTSHR TR-FRET cAMP Assay (inhibition of M22-stimulated cAMP production). The following applies: Expi293F Inducible cells stably expressing hTSHR; cAMP HTRF; stimulated with EC80 of anti-TSHR antibody M22; 15 min compound preincubation, 30 min at 37° C.; read-out: Activity (IC50 bins). Format: cell-based. An outline of the steps:
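Readout was a cAMP HTRF ratio of 655/620 nm after lysis, scaled between the EC80 M22 signal (0% inhibition) and no-agonist vehicle (100%). Frozen induced Expi293F-hTSHR cells saw test compounds (0.5% DMSO) for 15 min at 37 °C before 30 min of M22 stimulation at EC80.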
(TR-FRET usually uses a lanthanide donor and a delayed reading to cut background.)

For orientation: IC50 means the concentration that gives 50% inhibition.

A value given as a limit tells only on which side of the number the result lay.

T1 sequence (P16473 21-764): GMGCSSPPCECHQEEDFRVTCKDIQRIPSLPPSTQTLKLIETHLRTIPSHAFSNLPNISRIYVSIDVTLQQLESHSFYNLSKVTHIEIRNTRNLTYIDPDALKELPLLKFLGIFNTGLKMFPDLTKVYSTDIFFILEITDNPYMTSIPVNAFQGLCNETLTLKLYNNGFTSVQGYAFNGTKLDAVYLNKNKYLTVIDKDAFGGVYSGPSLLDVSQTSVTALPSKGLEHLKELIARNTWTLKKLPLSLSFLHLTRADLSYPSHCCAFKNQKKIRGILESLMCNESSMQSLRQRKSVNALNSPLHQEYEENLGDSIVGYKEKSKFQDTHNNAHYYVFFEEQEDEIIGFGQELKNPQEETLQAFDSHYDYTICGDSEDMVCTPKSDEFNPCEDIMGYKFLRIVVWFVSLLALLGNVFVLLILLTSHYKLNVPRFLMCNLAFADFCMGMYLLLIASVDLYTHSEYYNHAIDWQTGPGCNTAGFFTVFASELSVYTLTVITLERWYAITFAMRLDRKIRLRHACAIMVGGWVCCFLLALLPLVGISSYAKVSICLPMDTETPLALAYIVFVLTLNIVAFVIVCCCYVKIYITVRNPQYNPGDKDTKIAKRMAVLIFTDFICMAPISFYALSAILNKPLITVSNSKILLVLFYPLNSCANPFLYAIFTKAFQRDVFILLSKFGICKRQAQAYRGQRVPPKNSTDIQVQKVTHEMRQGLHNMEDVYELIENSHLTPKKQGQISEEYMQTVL

Turning to `C[C@H]1Oc2cc(NC(=O)NC(C)(C)C)c(C(F)(F)F)cc2N([C@@H](C)c2ccccc2)C1=O` [Example 349, 1-(tert-butyl)-3-((R)-2-methyl-3-oxo-4-((S)-1-phenylethyl)-6-(trifluoromethyl)-3,4-dihydro-2H-benzo[b][1,4]oxazin-7-yl)urea], the IC50 is less than 100 nM. As for `C[C@@H](c1cccc(OC(F)(F)F)c1)n1c(=O)cnc2c(CO)c(NC(=O)NC(C)(C)C)ccc21` [Example 351, (S)-1-(tert-butyl)-3-(5-(hydroxymethyl)-2-oxo-1-(1-(3-(trifluoromethoxy)phenyl)ethyl)-1,2-dihydroquinoxalin-6-yl)urea], the IC50 is greater than 1000 nM.

Consider `C[C@@H](c1cccc(OC(F)(F)F)c1)n1c(=O)cnc2cc(NC(=O)NC(C)(C)C)c(C#N)cc21` [Example 352, 3-tert-butyl-1-{7-cyano-2-oxo-1-[(1S)-1-[3-(trifluoromethoxy)phenyl]ethyl]quinoxalin-6-yl}urea], for which the IC50 was 100 to 1000 nM. In the case of `C[C@@H](c1cccc(OC(F)(F)F)c1)n1c(=O)cnc2c(F)c(NC(=O)NC(C)(C)C)ccc21` [Example 353, 3-tert-butyl-1-{5-fluoro-2-oxo-1-[(1S)-1-[3-(trifluoromethoxy)phenyl]ethyl]quinoxalin-6-yl}urea], the IC50 was 100 to 1000 nM. For the compound `C[C@H]1Oc2c(cc(C(F)(F)F)c(NC(=O)NC(C)(C)C)c2F)N(Cc2ccccc2)C1=O` [Example 354, (R)-1-(4-benzyl-8-fluoro-2-methyl-3-oxo-6-(trifluoromethyl)-3,4-dihydro-2H-benzo[b][1,4]oxazin-7-yl)-3-(tert-butyl)urea], the IC50 is 100 to 1000 nM. Regarding `C[C@H]1Oc2nc(NC(=O)NC(C)(C)C)c(Cl)cc2N(Cc2ccccc2)C1=O` [Example 355, 1-[(3R)-1-benzyl-7-chloro-3-methyl-2-oxo-3H-pyrido[2,3-b][1,4]oxazin-6-yl]-3-tert-butylurea], the IC50 lay in the range of 100 to 1000 nM. Under `C[C@H]1Oc2c(cc(C(F)(F)F)c(NC(=O)NC(C)(C)C)c2F)N(Cc2cccc(C(F)F)c2)C1=O` [Example 356, (R)-1-(tert-butyl)-3-(4-(3-(difluoromethyl)benzyl)-8-fluoro-2-methyl-3-oxo-6-(trifluoromethyl)-3,4-dihydro-2H-benzo[b][1,4]oxazin-7-yl)urea] stands 100 to 1000 nM; under `C[C@@H](c1cccc(Cl)c1)n1c(=O)cnc2cc(NC(=O)NC(C)(C)C)c(F)cc21` [Example 357, (S)-1-(tert-butyl)-3-(1-(1-(3-chlorophenyl)ethyl)-7-fluoro-2-oxo-1,2-dihydroquinoxalin-6-yl) Urea], 100 to 1000 nM.

Turning to `C[C@@H](c1cccc(Cl)c1)n1c(=O)cnc2cc(NC(=O)NC(C)(C)C)c(C(F)(F)F)cc21` [Example 358, 3-tert-butyl-1-{1-[(1S)-1-(3-chlorophenyl)ethyl]-2-oxo-7-(trifluoromethyl)quinoxalin-6-yl}urea], the IC50 was 100 to 1000 nM.

With `C[C@@H](c1cccc(OC(F)(F)F)c1)n1c(=O)cnc2cc(NC(=O)OC3CCCC3)ccc21` [Example 359, cyclopentyl (S)-(2-oxo-1-(1-(3-(trifluoromethoxy)phenyl)ethyl)-1,2-dihydroquinoxalin-6-yl)carbamate], the IC50 is less than 100 nM. On to `C[C@@H](c1ccccc1)n1c(=O)cnc2cc(NC(=O)NC(C)(C)C)c(CO)cc21` [Example 360, (S)-1-(tert-butyl)-3-(7-(hydroxymethyl)-2-oxo-1-(1-phenylethyl)-1,2-dihydroquinoxalin-6-yl)urea], for which the IC50 is greater than 1000 nM. In the case of `C[C@@H](c1cccc(Cl)c1)n1c(=O)cnc2cc(NC(=O)NC(C)(C)C)c(C#N)cc21` [Example 361, 3-tert-butyl-1-{1-[(1S)-1-(3-chlorophenyl)ethyl]-7-cyano-2-oxoquinoxalin-6-yl}urea], the IC50 is 100 to 1000 nM. With `C[C@H]1Oc2nc(NC(=O)NC(C)(C)C)c(C#N)cc2N(Cc2ccccc2)C1=O` [Example 362, 1-[(3R)-1-benzyl-7-cyano-3-methyl-2-oxo-3H-pyrido[2,3-b][1,4]oxazin-6-yl]-3-tert-butylurea], the IC50 is 100 to 1000 nM. On to `C[C@@H](c1cc(Cl)ccc1Cl)n1c(=O)cnc2cc(NC(=O)NC(C)(C)C)c(C#N)cc21` [Example 363, (S)-1-(tert-butyl)-3-(7-cyano-1-(1-(2,5-dichlorophenyl)ethyl)-2-oxo-1,2-dihydroquinoxalin-6-yl) urea], for which the IC50 lay within 100 to 1000 nM.

Regarding `C[C@@H](c1cc(Cl)ccc1F)n1c(=O)cnc2cc(NC(=O)NC(C)(C)C)c(C#N)cc21` [Example 364, 3-tert-butyl-1-{1-[(1S)-1-(5-chloro-2-fluorophenyl)ethyl]-7-cyano-2-oxoquinoxalin-6-yl}urea], the IC50 lay in the range of 100 to 1000 nM. With `C[C@@H](c1cc(Cl)ccc1Cl)n1c(=O)cnc2cc(NC(=O)NC(C)(C)C)c(Cl)cc21` [Example 365, (S)-1-(tert-butyl)-3-(7-chloro-1-(1-(2,5-dichlorophenyl)ethyl)-2-oxo-1,2-dihydroquinoxalin-6-yl)urea], the IC50 is less than 100 nM. For the compound `C[C@H]1Oc2cc(NC(=O)NC(C)(C)C)c(C#N)cc2N([C@@H](C)c2ccccc2)C1=O` [Example 366, 1-(tert-butyl)-3-((R)-6-cyano-2-methyl-3-oxo-4-((S)-1-phenylethyl)-3,4-dihydro-2H-benzo[b][1,4]oxazin-7-yl)urea], the IC50 was less than 100 nM. On to `C[C@H]1Oc2cc(NC(=O)NC(C)(C)C)c(C#N)cc2N(Cc2cc(Cl)ccc2Cl)C1=O` [Example 367, 3-tert-butyl-1-[(2R)-6-cyano-4-[(2,5-dichlorophenyl)methyl]-2-methyl-3-oxo-2H-1,4-benzoxazin-7-yl]urea], for which the IC50 fell in the range of 100 to 1000 nM.

Turning to `C[C@H]1Oc2nc(NC(=O)NC(C)(C)C)c(C(F)(F)F)cc2N(Cc2ccccc2)C1=O` [Example 368, (R)-1-(1-benzyl-3-methyl-2-oxo-7-(trifluoromethyl)-2,3-dihydro-1H-pyrido[2,3-b][1,4]oxazin-6-yl)-3-(tert-butyl)urea], the IC50 was less than 100 nM. Take `C[C@H]1Oc2c(cc(C#N)c(NC(=O)NC(C)(C)C)c2F)N(Cc2ccccc2)C1=O` [Example 369, (R)-1-(4-benzyl-6-cyano-8-fluoro-2-methyl-3-oxo-3,4-dihydro-2H-benzo[b][1,4]oxazin-7-yl)-3-(tert-butyl)urea]: the IC50 is less than 100 nM. Turning to `C[C@H]1Oc2c(cc(C#N)c(NC(=O)NC(C)(C)C)c2F)N(Cc2cccc(C(F)F)c2)C1=O` [Example 370, (R)-1-(tert-butyl)-3-(6-cyano-4-(3-(difluoromethyl)benzyl)-8-fluoro-2-methyl-3-oxo-3,4-dihydro-2H-benzo[b][1,4]oxazin-7-yl)urea], the IC50 is less than 100 nM. Then `C[C@H]1Oc2nc(NC(=O)NC(C)(C)C)c(C#N)cc2N(Cc2cccc(C(F)F)c2)C1=O` [Example 371, (R)-1-(tert-butyl)-3-(7-cyano-1-(3-(difluoromethyl)benzyl)-3-methyl-2-oxo-2,3-dihydro-1H-pyrido[2,3-b][1,4]oxazin-6-yl)urea], with less than 100 nM; and `C[C@@H](c1cc(Cl)ccc1F)n1c(=O)cnc2cc(NC(=O)NC(C)(C)C)c(Cl)cc21` [Example 372, (S)-1-(tert-butyl)-3-(7-chloro-1-(1-(5-chloro-2-fluorophenyl)ethyl)-2-oxo-1,2-dihydroquinoxalin-6-yl)urea], with less than 100 nM; and `C[C@H]1Oc2cc(NC(=O)NC(C)(C)C)c(C#N)cc2N(Cc2cc(Cl)ccc2F)C1=O` [Example 373, (R)-1-(tert-butyl)-3-(4-(5-chloro-2-fluorobenzyl)-6-cyano-2-methyl-3-oxo-3,4-dihydro-2H-benzo[b][1,4]oxazin-7-yl)urea], with 100 to 1000 nM. Take `C[C@H]1Oc2nc(NC(=O)NC(C)(C)C)c(C(F)(F)F)cc2N(Cc2cccc(C(F)F)c2)C1=O` [Example 374, (R)-1-(tert-butyl)-3-(1-(3-(difluoromethyl)benzyl)-3-methyl-2-oxo-7-(trifluoromethyl)-2,3-dihydro-1H-pyrido[2,3-b][1,4]oxazin-6-yl)urea]: the IC50 is less than 100 nM. With `CC(c1cc(C(O)C(F)(F)F)ccc1F)n1c(=O)cnc2cc(NC(=O)NC(C)(C)C)ccc21` (stereo not shown) [Example 375, 1-(tert-butyl)-3-(1-(1-(2-fluoro-5-(2,2,2-trifluoro-1-hydroxyethyl)phenyl)ethyl)-2-oxo-1,2-dihydroquinoxalin-6-yl)urea], the IC50 is greater than 1000 nM. Consider `C[C@H]1Oc2nc(NC(=O)NC(C)(C)C)c(C(F)(F)F)cc2N([C@@H](C)c2ccccc2)C1=O` [Example 376, 1-(tert-butyl)-3-((R)-3-methyl-2-oxo-1-((S)-1-phenylethyl)-7-(trifluoromethyl)-2,3-dihydro-1H-pyrido[2,3-b][1,4]oxazin-6-yl)urea], for which the IC50 was less than 100 nM. On to `C[C@@H](c1ccccc1)N1C(=O)CCc2nc(NC(=O)NC(C)(C)C)c(C(F)(F)F)cc21` [Example 377, (S)-1-(tert-butyl)-3-(6-oxo-5-(1-phenylethyl)-3-(trifluoromethyl)-5,6,7,8-tetrahydro-1,5-naphthyridin-2-yl)urea], for which the IC50 is less than 100 nM.
